IC50 data for seven compounds are collected here from ChEMBL document CHEMBL3108715, “Pan-histone demethylase inhibitors simultaneously targeting Jumonji C and lysine-specific demethylases display high anticancer activities” (J Med Chem, 2014).

In test [1] the target is Lysine-specific demethylase 6B (Homo sapiens, UniProt O15054).
Description: Inhibition of recombinant JMJD3 (unknown origin) incubated for 15 mins prior to substrate addition by AlphaScreen method
Test [2] deals with T1, Lysine-specific demethylase 4E (Homo sapiens, UniProt B2RXH2).
T1 sequence (B2RXH2 whole entry): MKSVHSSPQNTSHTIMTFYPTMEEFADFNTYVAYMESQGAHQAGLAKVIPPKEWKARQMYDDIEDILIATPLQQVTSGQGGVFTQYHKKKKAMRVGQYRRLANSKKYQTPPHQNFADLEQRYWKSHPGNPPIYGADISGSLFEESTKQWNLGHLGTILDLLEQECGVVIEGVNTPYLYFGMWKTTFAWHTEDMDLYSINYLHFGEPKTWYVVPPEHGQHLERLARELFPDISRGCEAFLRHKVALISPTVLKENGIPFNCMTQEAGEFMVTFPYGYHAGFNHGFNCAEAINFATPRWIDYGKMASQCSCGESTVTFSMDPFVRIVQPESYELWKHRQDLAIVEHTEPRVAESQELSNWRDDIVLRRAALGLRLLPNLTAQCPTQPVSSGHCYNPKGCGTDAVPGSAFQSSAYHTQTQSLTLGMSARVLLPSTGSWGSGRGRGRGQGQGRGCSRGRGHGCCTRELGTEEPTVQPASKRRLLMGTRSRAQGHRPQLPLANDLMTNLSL
Description: Inhibition of recombinant JMJD2E (unknown origin) incubated for 15 mins prior to substrate addition by AlphaScreen method

Test [3] concerns the target Lysine-specific demethylase 5C (Homo sapiens, UniProt P41229).
Description: Inhibition of recombinant JARID1C (unknown origin) incubated for 15 mins prior to substrate addition by AlphaScreen method
The target of test [4] is T2, Lysine-specific demethylase 2A (Homo sapiens, UniProt Q9Y2K7).
T2 sequence (Q9Y2K7 whole entry): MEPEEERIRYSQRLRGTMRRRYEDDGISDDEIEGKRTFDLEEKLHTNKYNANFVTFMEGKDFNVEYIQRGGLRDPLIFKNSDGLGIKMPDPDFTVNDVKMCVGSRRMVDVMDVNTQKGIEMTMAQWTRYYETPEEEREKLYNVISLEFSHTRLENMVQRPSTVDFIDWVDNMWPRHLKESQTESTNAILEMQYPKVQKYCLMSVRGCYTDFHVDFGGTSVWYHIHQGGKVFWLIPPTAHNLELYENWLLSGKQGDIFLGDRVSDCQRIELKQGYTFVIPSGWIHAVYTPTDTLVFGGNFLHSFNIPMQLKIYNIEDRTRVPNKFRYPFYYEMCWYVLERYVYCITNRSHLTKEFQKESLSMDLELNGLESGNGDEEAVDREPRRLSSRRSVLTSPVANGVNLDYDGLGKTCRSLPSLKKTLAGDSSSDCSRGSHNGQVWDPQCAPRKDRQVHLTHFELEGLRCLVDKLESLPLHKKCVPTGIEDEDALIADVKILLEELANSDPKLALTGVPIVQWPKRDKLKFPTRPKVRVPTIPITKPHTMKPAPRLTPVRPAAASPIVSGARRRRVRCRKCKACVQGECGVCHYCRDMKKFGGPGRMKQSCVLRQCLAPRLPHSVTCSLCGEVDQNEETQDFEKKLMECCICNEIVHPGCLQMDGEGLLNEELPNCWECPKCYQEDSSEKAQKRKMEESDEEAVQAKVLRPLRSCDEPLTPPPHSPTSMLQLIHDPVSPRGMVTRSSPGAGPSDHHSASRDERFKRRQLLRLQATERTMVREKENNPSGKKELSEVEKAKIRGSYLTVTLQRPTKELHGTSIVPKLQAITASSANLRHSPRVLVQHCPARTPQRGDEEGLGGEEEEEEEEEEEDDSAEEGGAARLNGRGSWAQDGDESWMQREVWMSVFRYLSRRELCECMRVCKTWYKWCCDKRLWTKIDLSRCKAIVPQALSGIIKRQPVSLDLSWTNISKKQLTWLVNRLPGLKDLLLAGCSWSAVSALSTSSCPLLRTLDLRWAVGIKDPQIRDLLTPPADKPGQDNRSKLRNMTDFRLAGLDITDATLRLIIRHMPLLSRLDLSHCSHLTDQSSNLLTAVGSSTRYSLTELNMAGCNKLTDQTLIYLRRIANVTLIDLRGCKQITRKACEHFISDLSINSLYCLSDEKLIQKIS
Description: Inhibition of recombinant FBXL11 (unknown origin) incubated for 15 mins prior to substrate addition by AlphaScreen method

For test [5], the target named is Lysine-specific histone demethylase 1A (Homo sapiens, UniProt O60341).
Description: Inhibition of human recombinant His-tagged LSD1 (171 to 836) assessed as hydrogen peroxide formation after 5 mins

Sequence of Lysine-specific demethylase 5C (P41229 whole entry): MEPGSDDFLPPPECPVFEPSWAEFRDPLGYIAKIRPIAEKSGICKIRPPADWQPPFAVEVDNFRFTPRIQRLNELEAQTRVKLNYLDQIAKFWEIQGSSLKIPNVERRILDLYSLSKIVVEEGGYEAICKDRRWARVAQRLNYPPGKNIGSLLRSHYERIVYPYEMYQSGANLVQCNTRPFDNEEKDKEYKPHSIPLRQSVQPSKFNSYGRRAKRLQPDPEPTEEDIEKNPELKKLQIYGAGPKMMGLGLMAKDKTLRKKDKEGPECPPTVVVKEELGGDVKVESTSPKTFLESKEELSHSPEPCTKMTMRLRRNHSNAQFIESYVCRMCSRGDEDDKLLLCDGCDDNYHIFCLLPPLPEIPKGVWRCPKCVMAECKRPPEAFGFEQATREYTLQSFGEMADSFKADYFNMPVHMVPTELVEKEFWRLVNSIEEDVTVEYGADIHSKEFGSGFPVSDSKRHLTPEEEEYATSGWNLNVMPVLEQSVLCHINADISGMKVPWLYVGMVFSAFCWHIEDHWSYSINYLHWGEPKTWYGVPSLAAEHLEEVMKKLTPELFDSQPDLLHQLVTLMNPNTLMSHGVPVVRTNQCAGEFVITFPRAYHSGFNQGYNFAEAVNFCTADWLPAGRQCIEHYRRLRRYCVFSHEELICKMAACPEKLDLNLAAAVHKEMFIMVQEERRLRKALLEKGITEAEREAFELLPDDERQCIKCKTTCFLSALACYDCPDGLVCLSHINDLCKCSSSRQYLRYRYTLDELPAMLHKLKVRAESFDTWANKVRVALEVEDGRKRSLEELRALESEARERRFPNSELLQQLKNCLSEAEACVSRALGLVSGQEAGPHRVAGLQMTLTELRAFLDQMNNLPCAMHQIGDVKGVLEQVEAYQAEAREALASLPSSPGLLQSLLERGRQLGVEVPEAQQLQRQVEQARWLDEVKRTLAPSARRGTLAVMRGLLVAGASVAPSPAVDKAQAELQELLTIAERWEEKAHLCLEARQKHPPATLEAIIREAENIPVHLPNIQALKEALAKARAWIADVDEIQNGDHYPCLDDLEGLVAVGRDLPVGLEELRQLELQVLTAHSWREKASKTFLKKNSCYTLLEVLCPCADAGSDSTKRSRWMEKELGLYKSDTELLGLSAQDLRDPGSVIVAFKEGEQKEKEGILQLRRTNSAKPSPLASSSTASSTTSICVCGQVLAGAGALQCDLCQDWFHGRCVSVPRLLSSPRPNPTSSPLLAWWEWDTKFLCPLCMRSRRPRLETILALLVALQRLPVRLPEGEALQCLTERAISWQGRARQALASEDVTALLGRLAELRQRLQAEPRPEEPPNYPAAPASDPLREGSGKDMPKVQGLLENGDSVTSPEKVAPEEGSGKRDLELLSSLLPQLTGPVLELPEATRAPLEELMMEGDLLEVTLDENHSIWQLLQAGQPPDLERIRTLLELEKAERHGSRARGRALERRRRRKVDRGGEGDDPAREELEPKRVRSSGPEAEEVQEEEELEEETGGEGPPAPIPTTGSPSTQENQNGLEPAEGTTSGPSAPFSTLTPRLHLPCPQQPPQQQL
Sequence of Lysine-specific demethylase 6B (O15054 whole entry): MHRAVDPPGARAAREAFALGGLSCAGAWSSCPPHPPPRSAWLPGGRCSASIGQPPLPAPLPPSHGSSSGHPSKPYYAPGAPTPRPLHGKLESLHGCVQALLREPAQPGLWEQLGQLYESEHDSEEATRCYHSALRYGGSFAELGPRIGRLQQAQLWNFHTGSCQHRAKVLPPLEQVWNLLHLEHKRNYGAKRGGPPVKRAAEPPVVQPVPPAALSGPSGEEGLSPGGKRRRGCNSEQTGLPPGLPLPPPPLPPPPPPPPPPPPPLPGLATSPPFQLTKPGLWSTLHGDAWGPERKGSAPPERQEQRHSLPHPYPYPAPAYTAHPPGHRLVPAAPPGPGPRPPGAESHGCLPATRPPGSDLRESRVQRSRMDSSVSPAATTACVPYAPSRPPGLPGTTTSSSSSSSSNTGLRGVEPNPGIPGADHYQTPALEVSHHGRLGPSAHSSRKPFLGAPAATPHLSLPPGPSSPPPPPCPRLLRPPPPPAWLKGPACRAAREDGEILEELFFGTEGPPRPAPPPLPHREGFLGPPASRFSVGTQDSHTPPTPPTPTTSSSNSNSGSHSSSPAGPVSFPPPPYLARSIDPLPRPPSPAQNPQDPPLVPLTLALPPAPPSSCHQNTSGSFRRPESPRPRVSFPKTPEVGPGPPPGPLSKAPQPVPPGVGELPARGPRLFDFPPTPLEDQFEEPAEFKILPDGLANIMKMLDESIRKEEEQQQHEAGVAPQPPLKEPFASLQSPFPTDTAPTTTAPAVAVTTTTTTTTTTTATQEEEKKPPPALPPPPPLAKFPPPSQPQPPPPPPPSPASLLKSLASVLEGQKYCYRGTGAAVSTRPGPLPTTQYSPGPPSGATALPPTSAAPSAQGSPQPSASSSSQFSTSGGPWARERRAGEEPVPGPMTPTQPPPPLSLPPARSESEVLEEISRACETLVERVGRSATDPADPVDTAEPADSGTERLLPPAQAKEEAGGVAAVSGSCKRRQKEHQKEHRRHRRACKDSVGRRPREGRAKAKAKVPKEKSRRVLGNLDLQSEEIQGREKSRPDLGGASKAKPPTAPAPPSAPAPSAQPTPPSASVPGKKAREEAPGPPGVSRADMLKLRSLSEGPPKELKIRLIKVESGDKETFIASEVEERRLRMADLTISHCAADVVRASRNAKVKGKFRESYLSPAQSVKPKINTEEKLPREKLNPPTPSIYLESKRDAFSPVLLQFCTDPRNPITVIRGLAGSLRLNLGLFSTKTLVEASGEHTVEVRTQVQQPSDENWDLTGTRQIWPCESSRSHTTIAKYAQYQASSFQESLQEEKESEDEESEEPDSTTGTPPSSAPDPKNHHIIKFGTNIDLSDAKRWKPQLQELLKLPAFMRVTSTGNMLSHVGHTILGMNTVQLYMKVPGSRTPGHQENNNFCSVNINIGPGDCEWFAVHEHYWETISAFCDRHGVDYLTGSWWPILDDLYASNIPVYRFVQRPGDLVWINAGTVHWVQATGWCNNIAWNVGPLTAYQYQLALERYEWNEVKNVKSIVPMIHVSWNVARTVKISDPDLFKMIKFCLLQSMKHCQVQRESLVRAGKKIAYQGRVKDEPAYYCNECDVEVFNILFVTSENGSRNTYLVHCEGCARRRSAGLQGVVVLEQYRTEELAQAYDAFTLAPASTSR

On to `COC(=O)c1ccnc(-c2cc(C(=O)O)ccn2)c1`, for which the IC50 is 11.2 µM in test [1]; 5 µM in test [2]; 0.03 µM in test [3]; 4.8 µM in test [4]; more than 100 µM in test [5].
The matching figures for `Cl.N[C@@H]1C[C@H]1c1ccc(NC(=O)c2ccc(O)c3ncccc23)cc1` (relative stereo): 27 µM, 3.9 µM, 26 µM, 7.8 µM and less than 1 µM.
Taken in the same sequence, the figures for `N[C@H]1C[C@@H]1c1ccc(NC(=O)CCCNC(=O)c2ccc(O)c3ncccc23)cc1` (relative stereo) were 18 µM, 5.5 µM, 35 µM, 12 µM and less than 1 µM.
Taken in the same sequence, the figures for `N[C@H]1C[C@@H]1c1ccc(NC(=O)CCCCNC(=O)c2ccc(O)c3ncccc23)cc1` (relative stereo) were 14 µM, 3.5 µM, 21 µM, 8.2 µM and 1.6 µM.
Regarding `Cl.N[C@H]1C[C@@H]1c1ccc(NC(=O)CCCCCNC(=O)c2ccc(O)c3ncccc23)cc1` (relative stereo), the IC50 in test [1] was determined as 16 µM; in test [2] it was 5.1 µM; in test [3], 37 µM; in test [4], 12 µM; in test [5], 1 µM.
Take `N[C@@H]1C[C@H]1c1ccc(NC(=O)c2ccnc(-c3cc(C(=O)O)ccn3)c2)cc1` (relative stereo): the IC50 stood at 2.7 µM in test [1]; 0.42 µM in test [2]; 0.19 µM in test [3]; 0.22 µM in test [4]; 2.2 µM in test [5].
The matching figures for `COC(=O)c1ccnc(-c2cc(C(=O)Nc3ccc([C@@H]4C[C@H]4N)cc3)ccn2)c1.Cl` (relative stereo): 76 µM, 16 µM, 8.5 µM, 12.2 µM and less than 1 µM.
